The subject of test [1] is microbial load. Description: Microbial load reduction on cotton cloth coated with quaternary ammonium compound alone. The class given is cell-based. To be noted: no electric field. On the procedure: The solid surface (cotton cloth) was suspended in a solution containing cetyltrimethylammonium bromide (CTAB) or alkyl dimethyl benzyl ammonium chloride (benzalkonium chloride) at various concentrations for about 2 hours. The solid surfaces were then heat dried in a furnace where the temperature was set at about 80° C., for about 8 hours. Once dried, the solid surfaces coated with QAC were ready to be used for various applications.
Reduction in microbial load was analysed at different concentrations of QACs.

The subject of test [2] is microbial load. The test is described as follows: Microbial load reduction on QAC-coated cotton cloth with or without electric field. The class given is cell-based. On the procedure: The effect of QAC coating and electric field application on flexible solid surfaces was analysed. The solid surface analysed was fabric (cotton cloth). The procedure for coating of QAC (CTAB or benzalkonium chloride) onto the cotton cloth was identical to the procedure described in Example 1. The final coated amount of QAC (CTAB or benzalkonium chloride) was between 0.01-0.05 mg/cm^2 of the solid surface. The electric field in this experiment was applied via. switch mode power supply (SMPS) with a voltage of 4 kV/cm coupled with a capacitance of 0.05 μF for various time-periods.
Reduction in microbial load was analysed using different methods.

With “alkyl dimethyl benzyl ammonium chloride [benzalkonium chloride]”, the “Microbial Load Reduction (Log10 Scale)” value with microbial load [1] (cotton cloth coated with 1% w/v, 0 mins) was found to be 0.00 Log10; in the test with microbial load [1] (cotton cloth coated with 1% w/v, 10 mins), 0.82 Log10; with microbial load [1] (cotton cloth coated with 1% w/v, 30 mins), 1.70 Log10; in the test on microbial load [1] (cotton cloth coated with 1% w/v, 45 mins), 4.57 Log10; in the test on microbial load [1] (cotton cloth coated with 1% w/v, 60 mins) it was 7.48 Log10; in the test with microbial load [1] (cotton cloth coated with 1% w/v, 90 mins), 7.48 Log10. Moreover, the “Microbial Load Reduction (Log10 Scale)” value in the test with microbial load [1] (cotton cloth coated with 10% w/v, 0 mins) is 0.00 Log10; with microbial load [1] (cotton cloth coated with 10% w/v, 10 mins), 0.92 Log10; with microbial load [1] (cotton cloth coated with 10% w/v, 30 mins) it was 3.10 Log10; with microbial load [1] (cotton cloth coated with 10% w/v, 45 mins), 7.30 Log10; with microbial load [1] (cotton cloth coated with 10% w/v, 60 mins), 7.30 Log10; with microbial load [1] (cotton cloth coated with 10% w/v, 90 mins), 7.30 Log10. Moreover, the “Microbial Load Reduction (Log10 Scale)” value in the test with microbial load [2] (cotton cloth coated with 1% w/v, With Electric Field (SMPS, 4 kV/cm, 0.05 μF), 0 mins) came out at 0.00 Log10; in the test with microbial load [2] (cotton cloth coated with 1% w/v, With Electric Field (SMPS, 4 kV/cm, 0.05 μF), 10 mins) it was 1.51 Log10; in the test on microbial load [2] (cotton cloth coated with 1% w/v, With Electric Field (SMPS, 4 kV/cm, 0.05 μF), 30 mins), 2.39 Log10; in the test with microbial load [2] (cotton cloth coated with 1% w/v, Without Electric Field, 0 mins), 0.00 Log10; in the test on microbial load [2] (cotton cloth coated with 1% w/v, Without Electric Field, 10 mins), 0.82 Log10; in the test on microbial load [2] (cotton cloth coated with 1% w/v, Without Electric Field, 30 mins), 1.70 Log10. Besides, the “Microbial Load Reduction (Log10 Scale)” value with microbial load [2] (cotton cloth coated with 10% w/v, With Electric Field (SMPS, 4 kV/cm, 0.05 μF), 0 mins) was determined as 0.00 Log10; in the test with microbial load [2] (cotton cloth coated with 10% w/v, With Electric Field (SMPS, 4 kV/cm, 0.05 μF), 10 mins), 1.16 Log10; in the test with microbial load [2] (cotton cloth coated with 10% w/v, With Electric Field (SMPS, 4 kV/cm, 0.05 μF), 30 mins) it was 3.03 Log10; with microbial load [2] (cotton cloth coated with 10% w/v, Without Electric Field, 0 mins), 0.00 Log10; in the test with microbial load [2] (cotton cloth coated with 10% w/v, Without Electric Field, 10 mins), 0.92 Log10; in the test with microbial load [2] (cotton cloth coated with 10% w/v, Without Electric Field, 30 mins), 3.10 Log10.

(Values after US12582731B2, “Method to decontaminate solid surface” (BIOMONETA RESEARCH PVT LTD, priority 2022, dated 2026).)
